Measured values as given in patent publication US7122193B1 (priority 1994, dated 2006).
Where two headings read alike, the source gives them in different places. Peptide text beside a SMILES is read from it.

Assays:
in vitro = details: pH 7.4
[1] = test system: IgG antibodies of sera of patients suffering from DLE and SS; assay type: binding, human
[2] = target: MAb 4 × 8 (IgG1) anti-L peptide
[3] = target: MAb 4 × 11 (IgG1) anti-L peptide
BALB/c mice = details: mouse, in vivo
MAb 11 × 7 [4] = assay type: binding, mouse
MAb 11 × 7 [5] = assay type: binding, mouse; remark: listed apart in the source
MAb 11 × 2 = assay type: binding, mouse
[6] = target: MAb 11 × 2 (IgG3) anti-D peptide
MAb 4 × 11 = assay type: binding, mouse
[7] = test system: IgG antibodies of sera of patients suffering from DLE and SS; assay type: binding, human; remark: listed apart in the source
Procedure: FIG. 6: ELISA reactivity of serum samples originating from patients suffering from DLE and SS with the parent peptide and the analogue RIb 277–291 of Ro52. The sera of the patients are diluted to 1:1,000. Only the antibody activity of the sub-class IgG is measured. The median values of the optical density are indicated. The broken line represents the upper limit of the normal population corresponding to the mean value of the optical density of 20 normal human sera+2 SD (standard deviation) (0.30 OD units).
Sera of female F1 lupous mice (NZB/W) were obtained from S. Batsford (Freibourg, Germany). The human sera originate from patients suffering from disseminated lupus erythematosus (DLE) and Sjögren's syndrome (SS). They were obtained from D. A. Isenberg (London), O. Meyer (Paris) and G. Fournié (Toulouse). The sera of healthy volunteers were obtained from J. L. Pasquali (Strasbourg).
The sera of lupous mice were tested by ELISA as described previously (Benkirane, N., Friede, M., Guichard, G., briand, J. P., Van Regenmortel, M. H. V. and Muller, S. (1993) Antigenicity and immunogenicity of modified synthetic peptides containing D-amino acid residues. J. Biol. Chem., 268: 26279–26285). Only the antibodies of isotype IgG were tested. […] Clin. Exp. Immunol., 95: 397–407) except in the case of the peptide Ro52 277–291, where sensitization of the ELISA plates was carried out at 4° C. instead of 37° C. (see the reasons above). The threshold value for positivity of each test, including that of tests based on the use of retro-inverso peptide analogues, was determined using 20 sera of healthy individuals. The antigenic activity of the peptides is also measured by ELISA using a liquid phase inhibition test.
The 30 sera (positive or negative with respect to the L peptide) were tested in parallel with the RIa and RIb analogues. It was shown that all the sera positive with the L peptide were also positive with the retro-inverso peptides. […] The mean optical density corresponding to the arithmetic mean of all the optical density values, including the values below the threshold line of positivity, is 0.21 (standard deviation 0.25) and 0.51 (standard deviation 0.62) with the L and RIb peptides respectively.

[8] = target: MAb 4 × 10 (IgG1) anti-L peptide

CC[C@H](C)[C@H](NC(=O)CNC(=O)CNC(=O)[C@@H](N)CS)C(=O)N[C@@H](CCCNC(=N)N)C(=O)NCC(=O)N[C@@H](CCC(=O)O)C(=O)N[C@@H](CCCNC(=N)N)C(=O)N[C@@H](C)C(=O)O [L peptide, [H Cys-Gly-Gly]-Ile-Arg-Gly-Glu-Arg-Ala-OH] (H-CGGIRGERA-OH)
half-life (in vitro): 7 min | mean optical density [1]: 0.21 | number of sera which reacted [1]: Six | percentage of sera which reacted [1]: 30% | Ka (affinity constant at equilibrium) [2]: 8e+07 M⁻¹ | ka (association constant) [2]: 13 ± 0.2 | kd (dissociation constant) [2]: 15 ± 0.2 | BIAcore (Ka M^−1) affinity constant at equilibrium [3]: 3e+06 M⁻¹ | Ka (affinity constant at equilibrium) [3]: 3e+06 M⁻¹ | ka (association constant) [3]: 3 ± 0.2 | kd (dissociation constant) [3]: 100 ± 0.3 | antibody subclasses of the response (BALB/c mice): the antibodies belong to the IgG1, 2a and 2b subclasses | ELISA (OD) reactivity with the peptides (MAb 11 × 7 [4]): 0.47 OD | Molar excesses of inhibitor peptide required to inhibit 50% of the bonding between the MAb and D peptide (MAb 11 × 7 [5]): —* (key: —: cross-reactivity not detectable (up to 250 μg/ml of competition peptide)) | ELISA (OD) reactivity with the peptides (MAb 11 × 2): 2.75 OD | BIAcore (Ka M^−1) affinity constant at equilibrium [6]: 2e+06 M⁻¹ | Ka (affinity constant at equilibrium) [6]: 2e+06 M⁻¹ | ka (association constant) [6]: 2 ± 0.3 | kd (dissociation constant) [6]: 100 ± 0.2 | ELISA (OD) reactivity with the peptides (MAb 4 × 11): 1.29 OD | sera of patients tested in which anti-peptide 277–291 antibodies are detected ([7]; 30 sera of DLE and SS patients): 17% | number of sera containing antibodies of the subclass IgG which react with the peptide ([7]; among 30 sera of DLE and SS patients, threshold 0.30 OD units, plates sensitized at 4° C.): 5 | mean optical density ([7]; arithmetic mean of all 30 sera, peptide 277–291 of Ro52): 0.21 | bonding of MAb 11×2 to the L peptide in the presence of a non-digested peptide (trypsin): 220 RU | time to complete loss of immunological activity on digestion with immobilized trypsin (trypsin; pH 7.4): 10 min | Ka (affinity constant at equilibrium) [8]: 4,486 ×10^6 M^−1 | ka (association constant) [8]: 987 ± 0.7 | kd (dissociation constant) [8]: 22 ± 0.2
